The results in this text go back to patent publication US4322346A, “5H-2,3-Benzodiazepine derivatives” (priority 1978, dated 1982).

Entries after “also recorded” stand apart in the source; their conditions may differ.

Holding throughout (type): in vivo
The subject of assay [1] is mice. Kind of assay: Fighting behaviour test on mice (method of Tedeschi et al.). As to conditions: for ED50: Mus musculus, po, mice; for "Fighting behaviour" test on mice, relative activity: relative to Grandaxin (1.0), from ED50 p.o. As to the method:
(§1) The tests were performed on mice. In the examination of the general behaviour the animals were treated intraperitoneally with 100 mg/kg or orally with 200 mg/kg of the compound in question. The fighting behaviour test was performed according to the method of Tedeschi et al. (J. Pharm. Exp. Ther. 25, 28 /1959/). The observations concerning the general behaviour of the animals and the ED50 values obtained in the fighting behaviour test are summarized in Table 1. In these tests 1-(3,4-dimethoxyphenyl)-4-methyl-5-ethyl-7,8-dimethoxy-5H-2,3-benzodiazepine (Grandaxin) was applied as reference substance.

Assay [2] relates to mice. As to the kind of experiment: General behaviour of mice. As to conditions: 100 mg/kg i.p. and, resp., 200 mg/kg p.o., SMA = spontaneous motor activity. On the procedure: These compounds decrease the spontaneous motor activity and potentiate the effect of narcotics.
as §1

In assay [3] the test system is mice. As to the kind of experiment: Narcosis potentiating activity on mice (sodium hexobarbital narcosis). As to conditions: for Narcosis potentiating activity on mice, Relative activity: relative to Grandaxin (1.0); for change in vivo at 50 mg/kg / change in vivo at 25 mg/kg / change in vivo at 12.5 mg/kg / change in vivo at 100 mg/kg: Mus musculus, po, 30 minutes before 50 mg/kg sodium hexobarbital i.v., prolongation vs control, read-out: Narcosis potentiating activity on mice, Increase, %. On the procedure: When studying the narcosis potentiating effect, the benzodiazepine compounds were administered to mice in oral dosages of 12.5, 25, 50 or 100 mg/kg, and 30 minutes later 50 mg/kg of sodium hexobarbital were injected intravenously into the animals. The percentage prolongation of the narcosis period, compared to the value observed in the control group treated with sodium hexobarbital alone, was calculated. In these tests Grandaxin was applied again as reference substance.

On to `CCC1C(C)=NN=C(c2ccc(OC)cc2)c2cc(OC)c(OC)cc21` (stereo not shown) [Example 4, 1-(4-methoxyphenyl)-4-methyl-5-ethyl-7,8-dimethoxy-5H-2,3-benzodiazepine], for which, in assay [1], the ED50 was found to be 40 mg/kg and the “"Fighting behaviour" test on mice, relative activity” value was found to be 1.6. In assay [2], the General behaviour entry was “Decrease of SMA”. Further, in assay [3] (50 mg/kg p.o.), the “Narcosis potentiating activity on mice, Relative activity” value was found to be 2.17 and the change in vivo at 50 mg/kg was 248%.
In the case of `CCC1C(C)=NN=C(c2ccccc2C)c2cc(OC)c(OC)cc21` (stereo not shown) [Example 7, 1-(2-tolyl)-4-methyl-5-ethyl-7,8-dimethoxy-5H-2,3-benzodiazepine], in assay [3] (25 mg/kg p.o.), the “Narcosis potentiating activity on mice, Relative activity” value worked out at 3.71 and the change in vivo at 25 mg/kg is 301%.
In the case of `CCCC1C(C)=NN=C(c2ccc(OC)c(OC)c2)c2cc(OC)c(OC)cc21.O` (stereo not shown) [Example 10, 1-(3,4-dimethoxyphenyl)-4-methyl-5-n-propyl-7,8-dimethoxy-5H-2,3-benzodiazepine hydrate], in assay [3] (25 mg/kg p.o.), the “Narcosis potentiating activity on mice, Relative activity” value stood at 1.23 and the change in vivo at 25 mg/kg is 100%. Besides, in assay [3] (50 mg/kg p.o.), the “Narcosis potentiating activity on mice, Relative activity” value stood at 1.62 and the change in vivo at 50 mg/kg came out at 185%.
For `CCC1=NN=C(c2ccc(OC)c(OC)c2)c2cc(OC)c(OC)cc2C1CC` (stereo not shown) [Example 11, 1-(3,4-dimethoxyphenyl)-4,5-diethyl-7,8-dimethoxy-5H-2,3-benzodiazepine], in assay [3] (25 mg/kg p.o.), the “Narcosis potentiating activity on mice, Relative activity” value was found to be 1.65 and the change in vivo at 25 mg/kg was found to be 134%. Further, in assay [3] (50 mg/kg p.o.), the “Narcosis potentiating activity on mice, Relative activity” value came out at 1.43 and the change in vivo at 50 mg/kg was determined as 163%.
For the compound `CCC1C(C)=NN=C(c2ccccc2F)c2cc(OC)c(OC)cc21` (stereo not shown) [Example 14, 1-(2-fluorophenyl)-4-methyl-5-ethyl-7,8 dimethoxy-5H-2,3-benzodiazepine], in assay [3] (12.5 mg/kg p.o.), the “Narcosis potentiating activity on mice, Relative activity” value came to 8.65 and the change in vivo at 12.5 mg/kg turned out to be 147%. In addition, in assay [3] (25 mg/kg p.o.), the “Narcosis potentiating activity on mice, Relative activity” value is on record as 3.16 and the change in vivo at 25 mg/kg was 256%. Further, in assay [3] (50 mg/kg p.o.), the “Narcosis potentiating activity on mice, Relative activity” value came out at 6.57 and the change in vivo at 50 mg/kg came to 750%.
On to `CCC1C(C)=NN=C(c2ccccc2Cl)c2cc(OC)c(OC)cc21` (stereo not shown) [Example 18, 1-(2-chlorophenyl)-4-methyl-5-ethyl-7,8-dimethoxy-5H-2,3-benzodiazepine], for which, in assay [1], the 50% effect level (ED50) was put at a dose of 40 mg/kg and the “"Fighting behaviour" test on mice, relative activity” value is reported as 1.6. In assay [2], the General behaviour entry is on record as “Strong decrease of SMA”. In addition, in assay [3] (12.5 mg/kg p.o.), the “Narcosis potentiating activity on mice, Relative activity” value is given as 9.41 and the change in vivo at 12.5 mg/kg came to 160%. In addition, in assay [3] (25 mg/kg p.o.), the “Narcosis potentiating activity on mice, Relative activity” value is 4.65 and the change in vivo at 25 mg/kg came to 377%. In addition, in assay [3] (50 mg/kg p.o.), the “Narcosis potentiating activity on mice, Relative activity” value was 13.33.
Regarding `CCC1C(C)=NN=C(c2ccccc2)c2cc(OC)c(OC)cc21` (stereo not shown) [Example 22, 1-phenyl-4-methyl-5-ethyl-7,8-dimethoxy-5H-2,3-benzodiazepine], in assay [1], the median effective dose (ED50) came to 35 mg/kg and the “"Fighting behaviour" test on mice, relative activity” value is reported as 1.8. Also, the General behaviour entry in assay [2] is “Decrease of SMA; also recorded: catalepsy”. Besides, in assay [3] (25 mg/kg p.o.), the “Narcosis potentiating activity on mice, Relative activity” value was determined as 2.23 and the change in vivo at 25 mg/kg was determined as 181%. Also, in assay [3] (50 mg/kg p.o.), the “Narcosis potentiating activity on mice, Relative activity” value is given as 3.20 and the change in vivo at 50 mg/kg was determined as 364%.
As to `CCC1C(C)=NN=C(c2ccc(O)c(OC)c2)c2cc(OC)c(OC)cc21` (stereo not shown) [Example 24, 1-(3-methoxy-4-hydroxyphenyl)-4-methyl-5-ethyl-7,8-dimethoxy-5H-2,3-benzodiazepine], in assay [3] (50 mg/kg p.o.), the “Narcosis potentiating activity on mice, Relative activity” value was determined as 1.16 and the change in vivo at 50 mg/kg stood at 132%.
Consider `CCC1C(C)=NN=C(c2ccc(OC)c(OC)c2)c2cc(OC)c(OC(C)C)cc21` (stereo not shown) [Example 33, 1-(3,4-dimethoxyphenyl)-4-methyl-5-ethyl-7-isopropoxy-8-methoxy-5H-2,3-benzodiazepine], for which, in assay [3] (25 mg/kg p.o.), the “Narcosis potentiating activity on mice, Relative activity” value was 3.01 and the change in vivo at 25 mg/kg turned out to be 244%. In assay [3] (50 mg/kg p.o.), the “Narcosis potentiating activity on mice, Relative activity” value stood at 3.90 and the change in vivo at 50 mg/kg was determined as 445%.
`CCC(C)Oc1cc2c(cc1OC)C(c1ccc(OC)c(OC)c1)=NN=C(C)C2CC` (stereo not shown) [Example 35, 1-(3,4-dimethoxyphenyl)-4-methyl-5-ethyl-7-sec.butoxy-8-methoxy-5H-2,3-benzodiazepine]: in assay [1], the 50% effect level (ED50) was put at a dose of 60 mg/kg and the “"Fighting behaviour" test on mice, relative activity” value is given as 1.1. Also, the General behaviour entry in assay [2] is “Decrease of SMA”. In addition, in assay [3] (25 mg/kg p.o.), the “Narcosis potentiating activity on mice, Relative activity” value is on record as 1.11 and the change in vivo at 25 mg/kg was 90%. For the same compound, in assay [3] (50 mg/kg p.o.), the “Narcosis potentiating activity on mice, Relative activity” value came to 1.52 and the change in vivo at 50 mg/kg turned out to be 173%. Besides, in assay [3] (100 mg/kg p.o.), the “Narcosis potentiating activity on mice, Relative activity” value is listed as 3.26 and the change in vivo at 100 mg/kg was 780%.
As for `CCOc1cc2c(cc1OC)C(c1ccc(OC)c(OC)c1)=NN=C(C)C2CC` (stereo not shown) [Example 36, 1-(3,4-dimethoxyphenyl)-4-methyl-5-ethyl-7-ethoxy-8-methoxy-5H-2,3-benzodiazepine], in assay [3] (25 mg/kg p.o.), the “Narcosis potentiating activity on mice, Relative activity” value came out at 1.62 and the change in vivo at 25 mg/kg was 132%. Besides, in assay [3] (50 mg/kg p.o.), the “Narcosis potentiating activity on mice, Relative activity” value was determined as 2.44 and the change in vivo at 50 mg/kg was 278%.
In the case of `CCCOc1cc2c(cc1OC)C(c1ccc(OC)c(OC)c1)=NN=C(C)C2CC` (stereo not shown) [Example 37, 1-(3,4-dimethoxyphenyl)-4-methyl-5-ethyl-7-n-propoxy-8-methoxy-5H-2,3-benzodiazepine], in assay [1], it took a dose of 40 mg/kg to reach the 50% effect level (ED50) and the “"Fighting behaviour" test on mice, relative activity” value was 1.6. Besides, the General behaviour result in assay [2] is on record as “Strong decrease of SMA”.
With `COc1cc2c(cc1OC)C(c1cccc(Cl)c1)=NN=C(C)C2` [Example 39, 1-(3-Chlorophenyl)-4-methyl-7,8-dimethoxy-5H-2,3-benzodiazepine], in assay [1], the ED50 was 16 mg/kg and the “"Fighting behaviour" test on mice, relative activity” value is recorded as 4.0. Moreover, the General behaviour result in assay [2] is “Strong decrease of SMA”. In assay [3] (12.5 mg/kg p.o.), the “Narcosis potentiating activity on mice, Relative activity” value is 7.94 and the change in vivo at 12.5 mg/kg is 135%. In assay [3] (25 mg/kg p.o.), the “Narcosis potentiating activity on mice, Relative activity” value is reported as 4.25 and the change in vivo at 25 mg/kg amounted to 344%.
For `COc1cc2c(cc1OC)C(C)C(C)=NN=C2c1cccc(Cl)c1` (stereo not shown) [Example 40, 1-(3-Chlorophenyl)-4,5-dimethyl-7,8-dimethoxy-5H-2,3-benzodiazepine], in assay [1], the 50% effective dose (ED50) came out at 50 mg/kg and the “"Fighting behaviour" test on mice, relative activity” value came to 1.3. Also, in assay [2], the General behaviour result was “Decrease of SMA”. In addition, in assay [3] (50 mg/kg p.o.), the “Narcosis potentiating activity on mice, Relative activity” value amounted to 0.79 and the change in vivo at 50 mg/kg was 90%. Besides, in assay [3] (100 mg/kg p.o.), the “Narcosis potentiating activity on mice, Relative activity” value was 0.91 and the change in vivo at 100 mg/kg came to 218%.
On to `COc1cc2c(cc1OC)C(c1cccc(F)c1)=NN=C(C)C2` [Example 41, 1-(3-Fluorphenyl)-4-methyl-7,8-dimethoxy-5H-2,3-benzodiazepine], for which, in assay [1], the ED50 amounted to 37 mg/kg and the “"Fighting behaviour" test on mice, relative activity” value came out at 1.7. For the same compound, in assay [2], the General behaviour result is “Decrease of SMA”. Also, in assay [3] (50 mg/kg p.o.), the “Narcosis potentiating activity on mice, Relative activity” value was 1.80 and the change in vivo at 50 mg/kg came to 205%. Besides, in assay [3] (100 mg/kg p.o.), the “Narcosis potentiating activity on mice, Relative activity” value amounted to 1.60 and the change in vivo at 100 mg/kg was 383%.
Turning to `CCC1C(C)=NN=C(c2cccc(F)c2)c2cc(OC)c(OC)cc21` (stereo not shown) [Example 42, 1-(3-Fluorphenyl)-4-methyl-5-ethyl-7,8-dimethoxy-5H-2,3-benzodiazepine], in assay [1], the median effective dose (ED50) came out at 40 mg/kg and the “"Fighting behaviour" test on mice, relative activity” value amounted to 1.6. Besides, the General behaviour entry in assay [2] is “Decrease of SMA”. Further, in assay [3] (25 mg/kg p.o.), the “Narcosis potentiating activity on mice, Relative activity” value is on record as 2.52 and the change in vivo at 25 mg/kg came out at 204%. In assay [3] (50 mg/kg p.o.), the “Narcosis potentiating activity on mice, Relative activity” value was 3.04 and the change in vivo at 50 mg/kg was determined as 347%.
Turning to `COc1cc2c(cc1OC)C(c1ccccc1OC)=NN=C(C)C2` [Example 43, 1-(2-Methoxyphenyl)-4-methyl-7,8-dimethoxy-5H-2,3-benzodiazepine], in assay [1], the 50% effect level (ED50) was put at a dose of 36 mg/kg and the “"Fighting behaviour" test on mice, relative activity” value is recorded as 1.8. For the same compound, the General behaviour result in assay [2] is reported as “Decrease of SMA”. For the same compound, in assay [3] (25 mg/kg p.o.), the “Narcosis potentiating activity on mice, Relative activity” value was found to be 2.89 and the change in vivo at 25 mg/kg is 234%.

A word on the ED50: it is the midpoint of the dose-response relation.
